SMILES strings stand for the structures.

For the test, the target named is T1, human TLR8 (Homo sapiens, UniProt Q9NR97).
T1 construct: host or cells: HEK-Blue cells
T1 sequence (Q9NR97 27-1041): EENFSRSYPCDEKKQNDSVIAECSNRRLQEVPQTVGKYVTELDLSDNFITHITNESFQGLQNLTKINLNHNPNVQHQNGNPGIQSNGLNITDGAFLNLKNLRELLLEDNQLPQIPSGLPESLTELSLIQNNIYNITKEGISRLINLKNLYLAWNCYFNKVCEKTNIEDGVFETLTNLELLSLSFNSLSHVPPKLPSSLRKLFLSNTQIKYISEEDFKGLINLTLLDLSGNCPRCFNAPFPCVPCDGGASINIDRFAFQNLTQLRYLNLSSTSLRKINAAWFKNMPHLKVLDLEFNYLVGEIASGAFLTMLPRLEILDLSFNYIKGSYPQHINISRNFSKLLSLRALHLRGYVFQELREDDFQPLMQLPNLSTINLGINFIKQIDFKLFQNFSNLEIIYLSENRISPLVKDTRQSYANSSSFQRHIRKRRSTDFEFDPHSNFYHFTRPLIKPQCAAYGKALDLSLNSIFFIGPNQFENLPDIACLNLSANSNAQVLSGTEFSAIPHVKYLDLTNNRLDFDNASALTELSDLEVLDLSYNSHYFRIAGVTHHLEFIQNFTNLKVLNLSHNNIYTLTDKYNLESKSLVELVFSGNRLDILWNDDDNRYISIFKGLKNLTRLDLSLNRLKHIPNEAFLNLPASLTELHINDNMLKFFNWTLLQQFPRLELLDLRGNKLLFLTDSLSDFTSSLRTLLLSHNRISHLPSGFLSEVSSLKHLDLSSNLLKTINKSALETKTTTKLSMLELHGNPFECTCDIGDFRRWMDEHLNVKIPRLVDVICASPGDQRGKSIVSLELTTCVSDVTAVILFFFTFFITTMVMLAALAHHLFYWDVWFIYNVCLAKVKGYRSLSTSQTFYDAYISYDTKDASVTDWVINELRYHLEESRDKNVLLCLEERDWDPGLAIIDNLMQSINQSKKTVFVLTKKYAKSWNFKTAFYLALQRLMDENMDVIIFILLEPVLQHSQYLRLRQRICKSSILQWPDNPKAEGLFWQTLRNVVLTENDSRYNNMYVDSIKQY
The experiment in a line: TLR8 inhibition reporter assay (HEK-Blue cells, SEAP reporter, R848 stimulation). In kind it is cell-based. The settings on record: HEK-Blue cells overexpressing human TLR8, R848 15.9 μM. In a few lines: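 22 h, 37° C, 5% CO2 incubation; compounds 0.05 nM-50 μM final; TLR7 cells 15000/well, TLR8 20,000/well. Readout: SEAP via HEK-Blue Detection medium. % inhibition = signal reduction versus agonist + DMSO wells, referenced to known inhibitor.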
Background: A reporter such as luciferase makes a cellular process visible.
For `COc1ccc(-c2[nH]c3ccc(C4CCNCC4)cc3c2CC(F)(F)F)cc1OC` [Example 329, 2-(3,4-dimethoxyphenyl)-5-(piperidin-4-yl)-3-(2,2,2-trifluoroethyl)-1H-indole], the IC50 (as a rule, the concentration at which inhibition is half-maximal) was 19 nM.
With `COc1ccc(-c2[nH]c3ccc(C4CCNCC4F)cc3c2C(C)C)cc1OC` (racemic) [Example 319, 2-(3,4-dimethoxyphenyl)-5-(3-fluoropiperidin-4-yl)-3-isopropyl-1H-indole], the IC50 came to 46 nM.
Compound `CNC(=O)CN1CCC(c2ccc3[nH]c(-c4ccc(OC)c(OC)c4)c(CC(F)F)c3c2)CC1` [Example 401, 2-(4-(3-(2,2-difluoroethyl)-2-(3,4-dimethoxyphenyl)-1H-indol-5-yl)piperidin-1-yl)-N-methylacetamide] gave an IC50 of 128 nM.
Next, `COc1ccc(-c2[nH]c3ccc(C4CCN(C(=O)CCC(N)=O)CC4)cc3c2CC(F)(F)F)cc1OC` [Example 333, 4-(4-(2-(3,4-dimethoxyphenyl)-3-(2,2,2-trifluoroethyl)-1H-indol-5-yl)piperidin-1-yl)-4-oxobutanamide]: 702 nM; `CCC(C)NC(=O)CN1CCC(c2ccc3[nH]c(-c4ccc(OC)c(OC)c4)c(CC(F)(F)F)c3c2)CC1` (stereo not shown) [Example 377, N-(sec-butyl)-2-(4-(2-(3,4-dimethoxyphenyl)-3-(2,2,2-trifluoroethyl)-1H-indol-5-yl)piperidin-1-yl)acetamide]: 204 nM.
As for `COc1ccc(-c2[nH]c3ccc(C4CCN(C(=O)CN(C)C)CC4)cc3c2CC(F)F)cc1OC` [Example 399, 1-(4-(3-(2,2-difluoroethyl)-2-(3,4-dimethoxyphenyl)-1H-indol-5-yl)piperidin-1-yl)-2-(dimethylamino)ethan-1-one], the IC50 is 82 nM.
Take `CCN1CCCC(N2CCC(c3ccc4[nH]c(-c5ccc(OC)c(OC)c5)c(C)c4c3)CC2)C1` (stereo not shown) [Example 24, 2-(3,4-dimethoxyphenyl)-5-(1′-ethyl-[1,3′-bipiperidin]-4-yl)-3-methyl-1H-indole]: the IC50 was found to be 27900 nM.
In turn, `COc1ccc(-c2[nH]c3ccc(C4CCN(C(=O)COc5cccnc5)CC4)cc3c2CC(F)(F)F)cc1OC` [Example 349, 1-(4-(2-(3,4-dimethoxyphenyl)-3-(2,2,2-trifluoroethyl)-1H-indol-5-yl)piperidin-1-yl)-2-(pyridin-3-yloxy)ethan-1-one] showed an IC50 of 671 nM.
Compound `COc1ccc(-c2[nH]c3ccc(C4CCN(C(=O)CCN(C)C)CC4)cc3c2CC(F)(F)F)cc1OC` [Example 340, 1-(4-(2-(3,4-dimethoxyphenyl)-3-(2,2,2-trifluoroethyl)-1H-indol-5-yl)piperidin-1-yl)-3-(dimethylamino)propan-1-one] had an IC50 of 32 nM.
`COc1ccc(-c2[nH]c3ccc(C4CCN(C(=O)CCCNC(C)=O)CC4)cc3c2CC(F)(F)F)cc1OC` [Example 343, N-(4-(4-(2-(3,4-dimethoxyphenyl)-3-(2,2,2-trifluoroethyl)-1H-indol-5-yl)piperidin-1-yl)-4-oxobutyl)acetamide] had an IC50 of 371 nM.
Next, `COc1ccc(-c2[nH]c3ccc(C4CCN(C(=O)C[C@@H](C)O)CC4)cc3c2CC(F)(F)F)cc1OC` [Example 353, (R)-1-(4-(2-(3,4-dimethoxyphenyl)-3-(2,2,2-trifluoroethyl)-1H-indol-5-yl)piperidin-1-yl)-3-hydroxybutan-1-one]: 964 nM; `COc1ccc(-c2[nH]c3ccc(C4CCNCC4(F)F)cc3c2C(C)C)cc1OC` (stereo not shown) [Example 325, 5-(3,3-difluoropiperidin-4-yl)-2-(3,4-dimethoxyphenyl)-3-isopropyl-1H-indole]: 147 nM.
Next, `COc1ccc(-c2[nH]c3ccc(C4CCN(C(=O)CN(C)C)CC4)cc3c2C)cc1OC` [Example 402, 1-(4-(2-(3,4-dimethoxyphenyl)-3-methyl-1H-indol-5-yl)piperidin-1-yl)-2-(dimethylamino)ethan-1-one]: 2280 nM.

(Values after patent US11180474B2 (BRISTOL-MYERS SQUIBB COMPANY, priority 2016, dated 2021).)
